Patent US20240174662A1, “SMALL MOLECULE INHIBITORS OF SALT INDUCIBLE KINASES” (Janssen Biotech, Inc., priority 2021, published 2024)

Target: SIK2 (Homo sapiens (Human), UniProt Q9H0K1)
Assay: SIK2 Enzymatic Assay Version 2 (High ATP)
Assay type: biochemical
Conditions: 3 mM ATP and 200 μM HDAC5tide final, ADP-Glo Max luminescence
Summary of the method: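 Luminescent ADP-Glo Max read-out: depletion reagent 2 h, then detection reagent 1 h. Before the reaction, compounds were incubated 30 min with enzyme added at 6 nM (twice final concentration), with all steps at room temperature.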

Sequence of SIK2 (Q9H0K1 whole entry, species assumed): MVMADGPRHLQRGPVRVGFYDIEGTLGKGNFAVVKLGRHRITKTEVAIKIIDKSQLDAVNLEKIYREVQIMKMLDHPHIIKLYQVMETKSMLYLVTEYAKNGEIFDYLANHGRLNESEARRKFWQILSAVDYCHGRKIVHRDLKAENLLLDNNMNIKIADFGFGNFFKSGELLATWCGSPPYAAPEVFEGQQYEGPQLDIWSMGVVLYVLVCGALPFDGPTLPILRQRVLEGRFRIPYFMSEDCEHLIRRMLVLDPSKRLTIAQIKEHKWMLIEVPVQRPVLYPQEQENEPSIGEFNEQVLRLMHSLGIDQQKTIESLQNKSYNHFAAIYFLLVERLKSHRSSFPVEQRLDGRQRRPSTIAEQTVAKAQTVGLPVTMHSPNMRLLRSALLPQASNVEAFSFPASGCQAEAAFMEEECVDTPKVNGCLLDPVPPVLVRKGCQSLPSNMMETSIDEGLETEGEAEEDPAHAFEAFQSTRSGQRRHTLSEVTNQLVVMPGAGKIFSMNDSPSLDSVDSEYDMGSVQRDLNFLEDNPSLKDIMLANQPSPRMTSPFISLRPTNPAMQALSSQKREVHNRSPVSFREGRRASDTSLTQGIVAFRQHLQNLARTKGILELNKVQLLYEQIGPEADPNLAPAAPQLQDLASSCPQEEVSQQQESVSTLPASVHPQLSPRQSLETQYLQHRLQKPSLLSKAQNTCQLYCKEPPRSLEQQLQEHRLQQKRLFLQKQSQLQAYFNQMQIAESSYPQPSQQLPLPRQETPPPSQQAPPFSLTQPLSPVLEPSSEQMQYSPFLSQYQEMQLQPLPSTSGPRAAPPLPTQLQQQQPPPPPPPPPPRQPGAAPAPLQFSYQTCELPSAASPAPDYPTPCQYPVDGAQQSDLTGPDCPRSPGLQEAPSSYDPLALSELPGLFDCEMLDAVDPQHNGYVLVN

`Cc1cc(Nc2cc3cc(-c4c(O[C@H]5C[C@H]6CC[C@@H]5O6)cnn4C)ccn3n2)nc(C)n1` (single isomer, unassigned) [Example 352, (1*S, 2*S, 4*R)—N-(2,6-dimethylpyrimidin-4-yl)-5-[2-methyl-4-(7-oxabicyclo[2.2.1]heptan-3-yloxy)pyrazol-3-yl]pyrazolo[1,5-a]pyridin-2-amine] was tested, and the IC50 was 66.8 nM.
Molecule `Cn1ncc(O[C@@H]2CCNC2)c1-c1ccn2nc(NC(=O)C3CC3)cc2c1` [Example 335, N-[5-[2-methyl-4-[(3R)-pyrrolidin-3-yl]oxy-pyrazol-3-yl]pyrazolo[1,5-a]pyridin-2-yl]cyclopropanecarboxamide] has an IC50 of 68.7 nM.
`Cc1cc(Nc2cc3cc(-c4c(OC[C@H]5C[C@H](C)CN5C)cnn4C)ccn3n2)nc(C)n1` [Example 305, N-(2,6-dimethylpyrimidin-4-yl)-5-[4-[[(2R,4S)-1,4-dimethylpyrrolidin-2-yl]methoxy]-2-methyl-pyrazol-3-yl]pyrazolo[1,5-a]pyridin-2-amine] gave an IC50 of 16.1 nM.
`Cn1ncc(OC[C@@H]2CCCN2)c1-c1ccn2nc(NC(=O)C3CC3)cc2c1` [Example 412, N-[5-[2-methyl-4-[[(2S)-pyrrolidin-2-yl]methoxy]pyrazol-3-yl]pyrazolo[1,5-a]pyridin-2-yl]cyclopropanecarboxamide] was tested, and the IC50 was 122 nM.
For `Cc1cc(Nc2cc3cc(-c4c(O[C@H]5C[C@@H]6CC[C@H]5O6)cnn4C)ccn3n2)nc(C)n1` (single isomer, unassigned) [Example 441, (1*R, 2*S, 4*S)—N-(2,6-dimethylpyrimidin-4-yl)-5-[2-methyl-4-(7-oxabicyclo[2.2.1]heptan-3-yloxy)pyrazol-3-yl]pyrazolo[1,5-a]pyridin-2-amine], the IC50 was 72.9 nM.
Work on `COC[C@@H]1C[C@H](Oc2noc(C)c2-c2ccn3nc(Nc4cc(C)c(C)nn4)cc3c2)CN1` [Example 390, N-(5,6-dimethylpyridazin-3-yl)-5-[3-[(3S,5S)-5-(methoxymethyl)pyrrolidin-3-yl]oxy-5-methyl-isoxazol-4-yl]pyrazolo[1,5-a]pyridin-2-amine] yielded an IC50 of 70.8 nM.
`CN1CC[C@H](Oc2cnn(C)c2-c2ccn3nc(Nc4cc(C(F)(F)F)ccn4)cc3c2)C1` [Example 340, 5-[2-methyl-4-[(3S)-1-methylpyrrolidin-3-yl]oxy-pyrazol-3-yl]-N-[4-(trifluoromethyl)-2-pyridyl]pyrazolo[1,5-a]pyridin-2-amine] gave an IC50 of 55.4 nM.
`Cc1cc(Nc2cc3cc(-c4c(OC[C@]5(C)CCCO5)cnn4C)ccn3n2)nc(C)n1` (single isomer, unassigned) [Example 447, (*S)—N-(2,6-dimethylpyrimidin-4-yl)-5-[2-methyl-4-[(2-methyltetrahydrofuran-2-yl)methoxy]pyrazol-3-yl]pyrazolo[1,5-a]pyridin-2-amine] was tested, and the IC50 was 69.7 nM.
For `Cn1ncc(OC[C@H]2CCN2CC2COC2)c1-c1ccn2nc(NC(=O)C3CC3)cc2c1` [Example 433, N-[5-[2-methyl-4-[[(2R)-1-(oxetan-3-ylmethyl)azetidin-2-yl]methoxy]pyrazol-3-yl]pyrazolo[1,5-a]pyridin-2-yl]cyclopropanecarboxamide], the IC50 was 122 nM.
`Cc1cc(Nc2cc3cc(-c4c(O[C@@H]5COC[C@@H]5C)cnn4C)ccn3n2)nc(C)n1` (single isomer, unassigned) [Example 445, (3*S,4*S)—N-(2,6-dimethylpyrimidin-4-yl)-5-[2-methyl-4-(4-methyltetrahydrofuran-3-yl)oxy-pyrazol-3-yl]pyrazolo[1,5-a]pyridin-2-amine] showed an IC50 of 78.9 nM.
For `Cc1cc(Nc2cc3cc(-c4c(O[C@@H]5CCN[C@H]5C)cnn4C)ccn3n2)nc(C)n1` [Example 298, N-(2,6-dimethylpyrimidin-4-yl)-5-[2-methyl-4-[(2S,3R)-2-methylpyrrolidin-3-yl]oxy-pyrazol-3-yl]pyrazolo[1,5-a]pyridin-2-amine], the IC50 was 39.2 nM.
Work on `Cc1onc(O[C@@H]2CN[C@H](C)C2)c1-c1ccn2nc(NC(=O)C3CC3)cc2c1` [Example 85, N-[5-[5-methyl-3-[(3S,5R)-5-methylpyrrolidin-3-yl]oxy-isoxazol-4-yl]pyrazolo[1,5-a]pyridin-2-yl]cyclopropanecarboxamide] yielded an IC50 of 32.1 nM.
